Values after ≈ are worked out from the molar mass of the structure shown.
Assays:
Assay type in all cases: cell-based
[1] = test system: STREPTOCOCCUS PYOGENES PIU 2548; assay: In vitro antibacterial activity, MIC, BHI agar dilution; conditions: S. pyogenes PIU 2548, unit assumed
[2] = test system: STAPHYLOCOCCUS AUREUS A5177; assay: as above; conditions: S. aureus A5177, unit assumed
[3] = test system: STAPHYLOCOCCUS AUREUS A-5278; assay: as above
[4] = test system: STAPHYLOCOCCUS EPIDERMIDIS 3519; conditions: S. epidermidis 3519; BHI agar; unit assumed
[5] = test system: MYCOBACTERIUM SMEGMATIS ATCC 114; assay: In vitro antibacterial activity, MIC, BHI agar dilution; conditions: M. smegmatis ATCC 114, unit assumed
ESCHERICHIA COLI JUHL = conditions: E. coli JUHL; BHI agar; unit assumed
[6] = test system: PROVIDENCIA STUARTII CMX 640; conditions: P. stuartii CMX 640; BHI agar; unit assumed
[7] = test system: ENTEROBACTER AEROGENES ATCC 13048; assay: In vitro antibacterial activity, MIC, BHI agar dilution; conditions: E. aerogenes ATCC 13048, unit assumed
ESCHERICHIA COLI DC-2 = assay: as above; conditions: E. coli DC-2, unit assumed
[8] = test system: KLEBSIELLA PNEUMONIAE ATCC 8045; assay: as above; conditions: K. pneumoniae ATCC 8045, unit assumed
[9] = test system: PSEUDOMONAS AERUGINOSA BMH10; assay: as above; conditions: P. aeruginosa BMH10, unit assumed
[10] = test system: PSEUDOMONAS AERUGINOSA DPHD-2862; assay: as above; conditions: P. aeruginosa DPHD-2862, unit assumed
ESCHERICHIA COLI KNK 437 = conditions: E. coli KNK 437; BHI agar; unit assumed
ESCHERICHIA COLI H560 = assay: In vitro antibacterial activity, MIC, BHI agar dilution; conditions: E. coli H560, unit assumed
[11] = test system: ACINETOBACTER CALCOACETICUS CMX 669; assay: as above; conditions: A. calcoaceticus CMX 669, unit assumed
[12] = test system: PSEUDOMONAS AERUGINOSA K799/WT; assay: as above; conditions: P. aeruginosa K799/WT, unit assumed
[13] = test system: STAPHYLOCOCCUS AUREUS ATCC 6538P; assay: as above; conditions: S. aureus ATCC 6538P, 35-37° C., 20 to 24 hours, unit assumed
PSEUDOMONAS CEPACIA 296I = assay: as above; conditions: P. cepacia 296I, unit assumed
[14] = test system: STREPTOCOCCUS PYOGENES EES61; assay: as above
M[…] ATCC 4698 = assay: as above
In short: (§1)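 Twelve successive aqueous dilutions of compound in Brain Heart Infusion agar were inoculated with 1:100 culture dilutions (1:10 for slow growers such as Micrococcus, Streptococcus) by Steers replicator and incubated at 35-37° C for 20 to 24 hours. MIC was the lowest concentration giving no growth, slight haze or sparse colonies versus drug-free control.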

M[…] ATCC 9341 = assay: as above; conditions: M. luteus ATCC 9341, unit assumed
In short: as §1

STR[…] 508 = assay: as above; conditions: S. agalactiae CMX 508, unit assumed
In short: as §1

EN[…] ATCC 8043 = assay: as above; conditions: E. faecium ATCC 8043, unit assumed
In short: as §1

[15] = test system: PSEUDOMONAS AERUGINOSA K799/61; assay: as above; conditions: P. aeruginosa K799/61, unit assumed
ESCHERICHIA COLI SS = assay: as above; conditions: E. coli SS
[16] = test system: PSEUDOMONAS AERUGINOSA DPHD-5263; assay: as above; conditions: P. aeruginosa DPHD-5263, unit assumed
[17] = test system: STAPHYLOCOCCUS AUREUS CMX 553; assay: as above; conditions: S. aureus CMX 553, unit assumed
[18] = test system: STAPHYLOCOCCUS AUREUS 1775; assay: as above; conditions: S. aureus 1775, unit assumed
[19] = test system: STAPHYLOCOCCUS AUREUS CMX 642A; assay: as above; conditions: S. aureus CMX 642A, unit assumed
CANDIDA ALBICANS CCH 442 = assay: as above; conditions: C. albicans CCH 442, unit assumed
[20] = test system: STAPHYLOCOCCUS AUREUS NCTC10649M; assay: as above; conditions: S. aureus NCTC10649M, unit assumed
[21] = test system: PSEUDOMONAS AERUGINOSA 5007; assay: as above; conditions: P. aeruginosa 5007, unit assumed
[22] = test system: STREPTOCOCCUS PYOGENES 930; assay: as above; conditions: S. pyogenes 930, unit assumed
[23] = test system: STREPTOCOCCUS BOVIS A-5169; assay: as above; conditions: S. bovis A-5169, listed as Ex 147, unit assumed
[24] = S. pyogenes EES61, unit assumed
[25] = M. luteus ATCC 4698, unit assumed

SMILES	MIC [1] [µg/mL]	MIC [2] [µg/mL]	MIC [4] [µg/mL]	MIC [5] [µg/mL]	MIC (ESCHERICHIA COLI JUHL) [µg/mL]	MIC [6] [µg/mL]	MIC [7] [µg/mL]	MIC (ESCHERICHIA COLI DC-2) [µg/mL]	MIC [8] [µg/mL]	MIC [9] [µg/mL]	MIC [10] [µg/mL]	MIC (ESCHERICHIA COLI KNK 437) [µg/mL]	MIC (ESCHERICHIA COLI H560) [µg/mL]	MIC [11] [µg/mL]	MIC [12] [µg/mL]	MIC [13] [µg/mL]	MIC (PSEUDOMONAS CEPACIA 296I) [µg/mL]	MIC (M[…] ATCC 9341) [µg/mL]	MIC (EN[…] ATCC 8043) [µg/mL]	MIC [16] [µg/mL]	also measured
CC[C@H]1OC(=O)[C@H](C)C(=O)[C@H](C)[C@@H](O[C@@H]2O[C@H](C)C[C@H](N(C)C)[C@H]2O)[C@](C)(OC)C[C@@H](C)C2=N[C@H](COCc3ccc(OC)cc3)CN3C(=O)O[C@@]1(C)[C@H]3[C@H]2C [Example 90]	0.78 (≈ 0.99 µM)	0.39 (≈ 0.495 µM)	0.39 (≈ 0.495 µM)	0.78 (≈ 0.99 µM)	> 100	> 100	> 100	> 100	> 100	> 100	> 100	> 100	50 (≈ 63.5 µM)	100 (≈ 127 µM)	> 100	0.39 (≈ 0.495 µM)	> 100	0.1 (≈ 0.127 µM)	0.02 (≈ 0.0254 µM)	> 100	MIC ([3]; S. aureus A-5278, unit assumed): > 100 µg/mL; MIC [14, 24]: ≤ 0.005 µg/mL; MIC (M[…] ATCC 4698; [25]): 0.78 µg/mL (≈ 0.99 µM); MIC (STR[…] 508): 0.02 µg/mL (≈ 0.0254 µM); MIC [15]: 6.2 µg/mL (≈ 7.87 µM); MIC (ESCHERICHIA COLI SS; unit assumed): 0.78 µg/mL (≈ 0.99 µM); MIC [17]: 0.39 µg/mL (≈ 0.495 µM); MIC [18]: > 100 µg/mL; MIC [19]: 0.39 µg/mL (≈ 0.495 µM); MIC (CANDIDA ALBICANS CCH 442): > 100 µg/mL; MIC [20]: 0.78 µg/mL (≈ 0.99 µM); MIC [21]: > 100 µg/mL
CCC1OC(=O)C(C)C(=O)C(C)C(OC2OC(C)CC(N(C)C)C2O)C(C)(OC)CC(C)C2=NCC(CSc3ccccc3)(CN(C)Cc3ccccc3)N3C(=O)OC1(C)C3C2C (stereo not shown) [Example 133]	1.56 (≈ 1.75 µM)	0.78 (≈ 0.873 µM)	1.56 (≈ 1.75 µM)	0.78 (≈ 0.873 µM)	> 100	> 100	> 100	> 100	> 100	> 100	> 100	> 100	> 100	> 100	> 100	0.78 (≈ 0.873 µM)	> 100	0.2 (≈ 0.224 µM)	0.1 (≈ 0.112 µM)	> 100	MIC ([3]; S. aureus A-5278, unit assumed): 25 µg/mL (≈ 28 µM); MIC [14, 24]: 0.02 µg/mL (≈ 0.0224 µM); MIC [22]: 6.2 µg/mL (≈ 6.94 µM); MIC (M[…] ATCC 4698; [25]): 1.56 µg/mL (≈ 1.75 µM); MIC [15]: 12.5 µg/mL (≈ 14 µM); MIC (ESCHERICHIA COLI SS; unit assumed): 12.5 µg/mL (≈ 14 µM); MIC [17]: 1.56 µg/mL (≈ 1.75 µM); MIC [18]: 25 µg/mL (≈ 28 µM); MIC [19]: 1.56 µg/mL (≈ 1.75 µM); MIC (CANDIDA ALBICANS CCH 442): 50 µg/mL (≈ 56 µM); MIC [20]: 1.56 µg/mL (≈ 1.75 µM); MIC [21]: > 100 µg/mL
CC[C@H]1OC(=O)[C@H](C)C(=O)[C@H](C)[C@@H](O[C@@H]2O[C@H](C)C[C@H](N(C)C)[C@H]2O)[C@](C)(OC)C[C@@H](C)C2=NC(COCc3ccc(Cl)cc3)C(COCc3ccc(Cl)cc3)N3C(=O)O[C@@]1(C)[C@H]3[C@H]2C (stereo partly shown) [Example 147]	3.1 (≈ 3.27 µM)	1.56 (≈ 1.65 µM)	1.56 (≈ 1.65 µM)	1.56 (≈ 1.65 µM)	> 100	> 100	> 100	> 100	> 100	> 100	> 100	> 100	> 100	> 100	> 100	1.56 (≈ 1.65 µM)	> 100	0.39 (≈ 0.412 µM)	0.78 (≈ 0.824 µM)	> 100	MIC ([3]; S. aureus A-5278, listed as Ex 147, unit assumed): 6.2 µg/mL (≈ 6.55 µM); MIC ([14]; S. pyogenes EES61, listed as Ex 147, unit assumed): 0.78 µg/mL (≈ 0.824 µM); MIC [22]: 3.1 µg/mL (≈ 3.27 µM); MIC (M[…] ATCC 4698; M. luteus ATCC 4698, listed as Ex 147, unit assumed): 3.1 µg/mL (≈ 3.27 µM); MIC (STR[…] 508): 0.78 µg/mL (≈ 0.824 µM); MIC (ESCHERICHIA COLI SS; listed as Ex 147, unit assumed): > 100 µg/mL; MIC [17]: 1.56 µg/mL (≈ 1.65 µM); MIC [18]: 12.5 µg/mL (≈ 13.2 µM); MIC [23]: 0.39 µg/mL (≈ 0.412 µM); MIC [19]: 1.56 µg/mL (≈ 1.65 µM); MIC (CANDIDA ALBICANS CCH 442): 50 µg/mL (≈ 52.8 µM); MIC [20]: 1.56 µg/mL (≈ 1.65 µM); MIC [21]: > 100 µg/mL

— patent US6274715A, “Tricyclic erythromycin derivatives” (priority 1997, dated 2001)
